Where only a bound is given, the exact number is not on record here.

The target in one assay is T1, cyclin D1/cdk 4 enzyme (Homo sapiens, UniProt P11802).
T1 construct: made in house; host or cells: Sf9 insect cells, recombinant baculovirus
Nature of the assay: CDK4 ELISA kinase assay (phospho-Rb ser 795 detection). Format: biochemical. Conditions: In Vitro Enzyme Assays, 200 μM ATP, read-out: CDK4 IC50. An outline of the steps:
(§1)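 Wells were coated overnight with GST-Rb C-terminal fragment, then blocked. Compound (10 ug/ml final) and cyclin/CDK enzyme from baculovirus-infected Sf9 cells with 200 μM ATP reacted 1 h at 30° C. Ser795 phosphorylation was detected by ELISA at 450 nm.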
In general terms: ELISA stands for enzyme-linked immunosorbent assay.

The target in another assay is T2, cyclin E/CDK2 enzyme (Homo sapiens, UniProt P24941).
T2 construct: made in house; host or cells: Sf9 insect cells, recombinant baculovirus
Nature of the assay: CDK2 ELISA kinase assay (phospho-Rb ser 795 detection). Format: biochemical. Conditions: In Vitro Enzyme Assays, read-out: CDK2 IC50. The gist of the method: as §1

For the next assay, the target named is T3, cyclin B/CDK1 enzyme (Homo sapiens, UniProt P06493).
T3 construct: purchased New England BioLabs; host or cells: Sf9 insect cells, recombinant baculovirus
T3 sequence (P06493 whole entry): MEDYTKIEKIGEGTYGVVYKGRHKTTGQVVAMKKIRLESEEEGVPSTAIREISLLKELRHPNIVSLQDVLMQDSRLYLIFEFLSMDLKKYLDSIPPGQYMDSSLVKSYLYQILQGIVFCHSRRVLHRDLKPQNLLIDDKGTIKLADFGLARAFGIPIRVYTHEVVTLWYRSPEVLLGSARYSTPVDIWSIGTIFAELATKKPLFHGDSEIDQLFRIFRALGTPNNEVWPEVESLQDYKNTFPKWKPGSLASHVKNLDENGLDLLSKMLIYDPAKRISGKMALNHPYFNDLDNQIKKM
T3 sequence (P14635 whole entry partner): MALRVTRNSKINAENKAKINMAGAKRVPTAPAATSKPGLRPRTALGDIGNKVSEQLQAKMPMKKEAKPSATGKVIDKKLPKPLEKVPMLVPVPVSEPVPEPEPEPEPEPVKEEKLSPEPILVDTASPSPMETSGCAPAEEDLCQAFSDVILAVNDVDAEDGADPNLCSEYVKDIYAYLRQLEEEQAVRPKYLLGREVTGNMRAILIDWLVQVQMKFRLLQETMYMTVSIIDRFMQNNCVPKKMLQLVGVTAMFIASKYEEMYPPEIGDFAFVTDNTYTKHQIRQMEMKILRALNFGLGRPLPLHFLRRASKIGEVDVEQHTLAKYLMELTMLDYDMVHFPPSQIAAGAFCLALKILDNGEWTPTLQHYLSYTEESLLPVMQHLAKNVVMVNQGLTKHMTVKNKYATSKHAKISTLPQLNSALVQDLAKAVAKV
Nature of the assay: CDK1 ELISA kinase assay (phospho-Rb ser 795 detection). Format: biochemical. The note with it: In Vitro Enzyme Assays, read-out: CDK1 IC50. An outline of the steps: as §1

A further assay concerns BT474. Nature of the assay: Cytotoxicity assay (SRB), BT474. Format: cell-based. Conditions: Homo sapiens, BT-474, 144 h, BT474 cells, SRB, 6 days; read-out: In Vitro Cellular Activity IC50 BT474. An outline of the steps: (§2)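 Overnight-seeded monolayers (4000–12000 cells/well by line) receive compound in 5% FBS medium at 37 °C, 7% CO2. After 3 d, or 6 d for BT474, cellular protein is fixed with cold TCA, stained with SRB and read at 540 nm against untreated wells.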

The subject of the next assay is HCT-116. The assay is described as follows: Cytotoxicity assay (SRB), HCT-116. The assay is classed as cell-based. The note with it: Homo sapiens, HCT-116, 72 h, HCT116 cells, SRB, three days; read-out: In Vitro Cellular Activity IC50 HCT116. An outline of the steps:
as §2

A further assay has as its system LoVo. Nature of the assay: Cytotoxicity assay (SRB), LoVo. The assay is classed as cell-based. The note with it: Homo sapiens, LoVo, 72 h, LoVo cells, SRB, three days; read-out: In Vitro Cellular Activity IC50 LOVO. An outline of the steps:
as §2

Another assay relates to MCF-7. The assay is described as follows: Cytotoxicity assay (SRB), MCF-7. The assay is classed as cell-based. Conditions: Homo sapiens, MCF7, 72 h, MCF-7 cells, SRB, three days; read-out: In Vitro Cellular Activity IC50 MCF-7. An outline of the steps: as §2

T1 sequence (P11802 whole entry, species assumed): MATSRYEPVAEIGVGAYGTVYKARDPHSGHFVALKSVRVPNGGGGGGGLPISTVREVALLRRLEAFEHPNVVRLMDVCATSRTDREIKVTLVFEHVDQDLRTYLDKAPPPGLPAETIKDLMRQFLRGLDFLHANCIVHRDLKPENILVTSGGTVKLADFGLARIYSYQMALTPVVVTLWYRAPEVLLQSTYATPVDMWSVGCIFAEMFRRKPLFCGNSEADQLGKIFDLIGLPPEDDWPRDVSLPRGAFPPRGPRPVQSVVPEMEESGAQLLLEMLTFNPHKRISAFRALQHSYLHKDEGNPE
T1 sequence (P24385 whole entry partner, species assumed): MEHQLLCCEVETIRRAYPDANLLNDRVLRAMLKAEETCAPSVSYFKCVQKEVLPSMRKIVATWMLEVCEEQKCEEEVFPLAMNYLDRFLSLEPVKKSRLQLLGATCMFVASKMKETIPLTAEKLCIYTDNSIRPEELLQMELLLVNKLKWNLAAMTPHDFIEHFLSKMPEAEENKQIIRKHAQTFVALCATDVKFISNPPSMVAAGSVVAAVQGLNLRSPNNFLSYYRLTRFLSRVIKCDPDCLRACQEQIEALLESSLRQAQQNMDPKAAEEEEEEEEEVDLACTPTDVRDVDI

By IC50 is commonly meant the midpoint of a concentration-inhibition curve. In the case of `C/C=C(\C)C(=O)Nc1ccc(CN/C=C2\C(=O)NC(=O)c3ccc(I)cc32)cc1O` [Example 336, (2E)-N-[2-Hydroxy-4-({[(Z)-(6-iodo-1,3-dioxo-2,3-dihydroisoquinolin-4(1H)-ylidene)methyl]amino}methyl)phenyl]-2-methylbut-2-enamide], the IC50 at cyclin D1/cdk 4 enzyme was 40 nM; on cyclin E/CDK2 enzyme, 5800 nM; on cyclin B/CDK1 enzyme, greater than 50000 nM; with BT474 it was 19000 nM; in the assay with HCT-116 it was 12000 nM; with LoVo, 14000 nM. Also, in the assay with MCF-7, the IC50 amounted to 6100 nM.
With `O=C(/C=C\Cl)Nc1ccc(CN/C=C2\C(=O)NC(=O)c3ccc(I)cc32)cc1O` [Example 337, (2Z)-3-Chloro-N-[2-hydroxy-4-({[(Z)-(6-iodo-1,3-dioxo-2,3-dihydroisoquinolin-4(1H)-ylidene)methyl]amino}methyl)phenyl]acrylamide], the 50% inhibitory concentration (IC50) came to 20 nM at cyclin D1/cdk 4 enzyme; 1000 nM on cyclin E/CDK2 enzyme; 3100 nM on cyclin B/CDK1 enzyme; 730 nM in the assay with BT474; 670 nM with HCT-116; 910 nM in the assay on LoVo. Further, in the assay on MCF-7, the IC50 worked out at 1100 nM.
`C=C(CN(C)C)C(=O)Nc1ccc(CN/C=C2\C(=O)NC(=O)c3ccc(I)cc32)cc1O` [Example 338, 2-[(Dimethylamino)methyl]-N-[2-hydroxy-4-({[(Z)-(6-iodo-1,3-dioxo-2,3-dihydroisoquinolin-4(1H)-ylidene)methyl]amino}methyl)phenyl]acrylamide]: the IC50 worked out at 100 nM at cyclin D1/cdk 4 enzyme; 2800 nM on cyclin E/CDK2 enzyme; 13800 nM at cyclin B/CDK1 enzyme; 2000 nM in the assay on BT474; 950 nM with HCT-116; 870 nM with LoVo. Besides, the IC50 in the assay with MCF-7 was 940 nM.
For the compound `CC#CC(=O)Nc1ccc(CN/C=C2\C(=O)NC(=O)c3ccc(I)cc32)cc1O` [Example 339, N-[2-Hydroxy-4-({[(Z)-(6-iodo-1,3-dioxo-2,3-dihydroisoquinolin-4(1H)-ylidene)methyl]amino}methyl)phenyl]but-2-ynamide], the IC50 came out at 70 nM on cyclin D1/cdk 4 enzyme; 370 nM on cyclin E/CDK2 enzyme; 820 nM at cyclin B/CDK1 enzyme; 5100 nM in the assay on BT474; 10000 nM in the assay with HCT-116; 12000 nM in the assay on LoVo. Further, in the assay with MCF-7, the IC50 came out at 16000 nM.
For `C#CC(=O)Nc1ccc(CN/C=C2\C(=O)NC(=O)c3ccc(I)cc32)cc1O` [Example 340, N-[2-Hydroxy-4-({[(Z)-(6-iodo-1,3-dioxo-2,3-dihydroisoquinolin-4(1H)-ylidene)methyl]amino}methyl)phenyl]prop-2-ynamide], the IC50 on cyclin D1/cdk 4 enzyme worked out at 70 nM; at cyclin E/CDK2 enzyme it was 1600 nM; at cyclin B/CDK1 enzyme, 6100 nM; in the assay with BT474 it was 1400 nM; in the assay on HCT-116, 1200 nM; with LoVo it was 1400 nM. For the same compound, the IC50 with MCF-7 was found to be 1400 nM.
On to `CCC(=O)Nc1ccc(CN/C=C2\C(=O)NC(=O)c3ccc(I)cc32)cc1O` [Example 341, N-[2-Hydroxy-4-({[(Z)-(6-iodo-1,3-dioxo-2,3-dihydroisoquinolin-4(1H)-ylidene)methyl]amino}methyl)phenyl]propanamide], for which the IC50 amounted to 20 nM on cyclin D1/cdk 4 enzyme; 590 nM at cyclin E/CDK2 enzyme; 3100 nM at cyclin B/CDK1 enzyme; 930 nM in the assay on BT474; 1000 nM in the assay with HCT-116; 950 nM in the assay with LoVo. In addition, in the assay with MCF-7, the IC50 stood at 2500 nM.
Turning to `C=CC(=O)Nc1ccc(CN/C=C2\C(=O)NC(=O)c3ccc(I)cc32)cc1O` [Example 342, N-[2-Hydroxy-4-({[(Z)-(6-iodo-1,3-dioxo-2,3-dihydroisoquinolin-4(1H)-ylidene)methyl]amino}methyl)phenyl]acrylamide], the IC50 on cyclin D1/cdk 4 enzyme turned out to be 10 nM; on cyclin E/CDK2 enzyme it was 860 nM; at cyclin B/CDK1 enzyme it was 2900 nM; with BT474 it was 70 nM; with HCT-116 it was 120 nM; in the assay on LoVo, 90 nM. For the same compound, in the assay with MCF-7, the concentration for half-maximal inhibition (IC50) is 150 nM.
Consider `C/C=C/C(=O)Nc1ccc(CN/C=C2\C(=O)NC(=O)c3ccc(I)cc32)cc1OC(=O)/C=C/C` [Example 343, 2-[(2E)-But-2-enoylamino]-5-({[(Z)-(6-iodo-1,3-dioxo-2,3-dihydroisoquinolin-4(1H)-ylidene)methyl]amino}methyl)phenyl (2E)-but-2-enoate], for which the IC50 is 7800 nM at cyclin D1/cdk 4 enzyme; 22600 nM at cyclin E/CDK2 enzyme; greater than 50000 nM at cyclin B/CDK1 enzyme; 7700 nM in the assay with BT474; 12000 nM in the assay with HCT-116; 9800 nM with LoVo. Further, the IC50 in the assay with MCF-7 amounted to 14000 nM.
On to `CCCOc1ccc(CN/C=C2\C(=O)NC(=O)c3ccc(Br)cc32)cc1C(N)=O` [Example 353, 5-({[(Z)-(6-Bromo-1,3-dioxo-2,3-dihydroisoquinolin-4(1H)-ylidene)methyl]amino}methyl)-2-propoxybenzamide], for which the IC50 on cyclin D1/cdk 4 enzyme was greater than 50000 nM; on cyclin E/CDK2 enzyme it was 31700 nM; at cyclin B/CDK1 enzyme, greater than 50000 nM; in the assay on BT474, 670 nM; in the assay on HCT-116, 6100 nM; in the assay on LoVo, 1000 nM. In the assay on MCF-7, the IC50 is greater than 50000 nM.
As to `CC(c1ccc(N/C=C2\C(=O)NC(=O)c3ccc(I)cc32)cc1)N1CCCC1` (stereo not shown) [Example 354, 6-Iodo-4-{[4-(1-pyrrolidin-1-yl-ethyl)-phenylamino]-methylene}-4H-isoquinoline-1,3-dione], the IC50 on cyclin D1/cdk 4 enzyme is 230 nM; at cyclin E/CDK2 enzyme, 5000 nM; at cyclin B/CDK1 enzyme it was greater than 50000 nM; in the assay on BT474, 8600 nM; with HCT-116 it was 4800 nM; with LoVo, 3500 nM. For the same compound, the IC50 in the assay with MCF-7 worked out at 940 nM.
Take `CN1CCN(C2CCC(NC=C3C(=O)NC(=O)c4ccc(I)cc43)CC2)CC1` (stereo not shown) [Example 360, 6-Iodo-4-{[4-(4-methyl-piperazin-1-yl)-cyclohexylamino]-methylene}-4H-isoquinoline-1,3-dione]: the IC50 at cyclin D1/cdk 4 enzyme is 460 nM; at cyclin E/CDK2 enzyme it was greater than 50000 nM; on cyclin B/CDK1 enzyme it was greater than 50000 nM; in the assay with BT474, 16000 nM; in the assay on HCT-116, 9600 nM; in the assay on LoVo, 9600 nM. The IC50 in the assay on MCF-7 came out at 8900 nM.
Turning to `CN1CCCC1c1ccc(NC=C2C(=O)NC(=O)c3ccc(I)cc32)cc1` (stereo not shown) [Example 361, 6-Iodo-4-{[4-(1-methyl-pyrrolidin-2-yl)-phenylamino]-methylene}-4H-isoquinoline-1,3-dione], the IC50 at cyclin D1/cdk 4 enzyme worked out at 220 nM; at cyclin E/CDK2 enzyme, 17900 nM; on cyclin B/CDK1 enzyme, 45500 nM; with BT474 it was 860 nM; with HCT-116, 3800 nM; in the assay with LoVo, 5900 nM. In the assay on MCF-7, the IC50 came to 2600 nM.
`COc1cnc(CNC=C2C(=O)NC(=O)c3ccc(I)cc32)cc1O` [Example 362, 6-Iodo-4-{[(4-hydroxy-5-methoxy-pyridin-2-ylmethyl)-amino]-methylene}-4H-isoquinoline-1,3-dione]: the IC50 at cyclin D1/cdk 4 enzyme worked out at 10 nM; on cyclin E/CDK2 enzyme, 500 nM; at cyclin B/CDK1 enzyme it was 14700 nM; in the assay on BT474, 200 nM; in the assay with HCT-116, 1300 nM; in the assay on LoVo, 700 nM. Also, the IC50 in the assay with MCF-7 stood at 1000 nM.
For the compound `CCCOc1cnc(CNC=C2C(=O)NC(=O)c3ccc(-n4cccc4)cc32)cc1O` [Example 363, 4-{[(4-Hydroxy-5-propoxy-pyridin-2-ylmethyl)-amino]-methylene}-6-pyrrol-1-yl-4H-isoquinoline-1,3-dione], the IC50 on cyclin D1/cdk 4 enzyme is 6 nM; on cyclin E/CDK2 enzyme, 14700 nM; on cyclin B/CDK1 enzyme, greater than 50000 nM; with BT474 it was 1500 nM; in the assay with HCT-116, 3200 nM; in the assay with LoVo it was 2300 nM. In addition, in the assay with MCF-7, the IC50 was 2400 nM.
Regarding `CCCOc1cnc(CNC=C2C(=O)NC(=O)c3ccc(Br)cc32)cc1O` [Example 365, 4-{[(4-Hydroxy-5-propoxy-pyridin-2-ylmethyl)-amino]-methylene}-6-bromo-4H-isoquinoline-1,3-dione], the IC50 on cyclin D1/cdk 4 enzyme is 70 nM; on cyclin E/CDK2 enzyme it was 1900 nM; on cyclin B/CDK1 enzyme, greater than 50000 nM; in the assay with BT474, 760 nM; in the assay on HCT-116, 1300 nM; with LoVo, 1000 nM. Moreover, the IC50 with MCF-7 was determined as 1200 nM.
In the case of `COC(=O)[C@H]1CCCN1Cc1ccc(NC=C2C(=O)NC(=O)c3ccc(I)cc32)cc1` [Example 367, D-1-{4-[(6-Iodo-1,3-dioxo-2,3-dihydro-1H-isoquinolin-4-ylidenemethyl)-amino]-benzyl}-pyrrolidine-2-carboxylic acid methyl ester], the IC50 on cyclin D1/cdk 4 enzyme was 12600 nM; at cyclin E/CDK2 enzyme it was 43400 nM; on cyclin B/CDK1 enzyme, greater than 50000 nM; with BT474 it was 15000 nM; in the assay with HCT-116, 13000 nM; with LoVo it was 26000 nM. The IC50 with MCF-7 came out at 13000 nM.

For the origin of these results see US7713994B2 (Wyeth LLC, priority 2005, dated 2010).
